Consider three compounds from paper PMC10104807, “Modulation of tau tubulin kinases (TTBK1 and TTBK2) impacts ciliogenesis” (Scientific Reports, 2023).

For one assay, the target named is T1, PKNB(M.tuberculosis) (Mycobacterium tuberculosis, UniProt P9WI81).
T1 construct: purchased Eurofins (radiometric) / Eurofins DiscoverX scanMAX / Reaction Biology / SignalChem
Kind of assay: DiscoverX scanMAX binding assay. The conditions noted are these: for PKNB(M.tuberculosis) % control at 1000nM: 1 μM. From the text:
(§1) This panel includes 403 wild-type (WT) human kinases but not TTBK1/2. […] Substantial overlap between the MRC and DiscoverX scanMAX kinase panels allows the comparison of results for the same kinases in two different assay formats (enzymatic versus binding, respectively) at the same concentration. Selectivity results are included in two columns within Table 1. […] The rightmost column converts this selectivity score into the number of kinases with a PoC < 10 in the scanMAX panel.
(§2) The Eurofins DiscoverX Corporation scanMAX assay platform was employed to assess the selectivity of specific analogs at a single concentration (1 µM). As described previously, this assay platform profiles a compound against 403 wild-type human kinases and delivers percent of control (PoC) values. These percent of control values are included in Table 1 and corresponding kinome tree diagrams as well as tables for each analog included in Fig. S1.

A further assay concerns the target T2, MAP4K2 (Homo sapiens, UniProt Q12851).
T2 construct: purchased Eurofins (radiometric) / Eurofins DiscoverX scanMAX / Reaction Biology / SignalChem
T2 sequence (Q12851 1-820): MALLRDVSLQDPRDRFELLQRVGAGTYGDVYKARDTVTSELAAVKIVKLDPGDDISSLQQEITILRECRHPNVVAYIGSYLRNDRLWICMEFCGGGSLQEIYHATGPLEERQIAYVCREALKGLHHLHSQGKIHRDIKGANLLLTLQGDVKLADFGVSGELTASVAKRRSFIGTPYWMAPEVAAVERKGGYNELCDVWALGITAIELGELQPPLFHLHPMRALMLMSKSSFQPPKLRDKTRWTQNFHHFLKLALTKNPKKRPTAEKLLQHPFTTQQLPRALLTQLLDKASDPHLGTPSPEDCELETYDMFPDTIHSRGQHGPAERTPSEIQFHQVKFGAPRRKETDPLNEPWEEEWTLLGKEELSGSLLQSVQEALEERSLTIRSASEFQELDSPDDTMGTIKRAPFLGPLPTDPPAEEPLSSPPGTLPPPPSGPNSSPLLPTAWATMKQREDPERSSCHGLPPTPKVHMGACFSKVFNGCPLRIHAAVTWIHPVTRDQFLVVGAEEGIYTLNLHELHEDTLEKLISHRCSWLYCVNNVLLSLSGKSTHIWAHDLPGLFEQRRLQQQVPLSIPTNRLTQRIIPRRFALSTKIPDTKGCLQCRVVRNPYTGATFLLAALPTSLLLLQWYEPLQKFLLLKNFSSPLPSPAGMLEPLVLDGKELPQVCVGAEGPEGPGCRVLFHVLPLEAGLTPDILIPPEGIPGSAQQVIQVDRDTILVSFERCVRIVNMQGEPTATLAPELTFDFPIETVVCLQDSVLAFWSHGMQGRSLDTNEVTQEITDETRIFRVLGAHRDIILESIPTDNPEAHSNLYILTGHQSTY
Briefly: DiscoverX scanMAX binding assay. The conditions noted are these: for MAP4K2 % control at 1000nM: 1 μM.
Source text: as §1, §2

In another assay the target is T3, PIP5K1C (Homo sapiens, UniProt O60331).
T3 construct: purchased Eurofins (radiometric) / Eurofins DiscoverX scanMAX / Reaction Biology / SignalChem
Briefly: DiscoverX scanMAX binding assay. Conditions: 1 μM.
Source text: as §1, §2

The next assay addresses T4, CIT (Homo sapiens, UniProt O14578).
T4 construct: purchased Eurofins (radiometric) / Eurofins DiscoverX scanMAX / Reaction Biology / SignalChem
Briefly: DiscoverX scanMAX binding assay. Conditions: 1 μM.
Source text: as §1, §2

The target in a further assay is T5, TAOK2 (Homo sapiens, UniProt Q9UL54).
T5 construct: purchased Eurofins
T5 sequence (Q9UL54 1-1235): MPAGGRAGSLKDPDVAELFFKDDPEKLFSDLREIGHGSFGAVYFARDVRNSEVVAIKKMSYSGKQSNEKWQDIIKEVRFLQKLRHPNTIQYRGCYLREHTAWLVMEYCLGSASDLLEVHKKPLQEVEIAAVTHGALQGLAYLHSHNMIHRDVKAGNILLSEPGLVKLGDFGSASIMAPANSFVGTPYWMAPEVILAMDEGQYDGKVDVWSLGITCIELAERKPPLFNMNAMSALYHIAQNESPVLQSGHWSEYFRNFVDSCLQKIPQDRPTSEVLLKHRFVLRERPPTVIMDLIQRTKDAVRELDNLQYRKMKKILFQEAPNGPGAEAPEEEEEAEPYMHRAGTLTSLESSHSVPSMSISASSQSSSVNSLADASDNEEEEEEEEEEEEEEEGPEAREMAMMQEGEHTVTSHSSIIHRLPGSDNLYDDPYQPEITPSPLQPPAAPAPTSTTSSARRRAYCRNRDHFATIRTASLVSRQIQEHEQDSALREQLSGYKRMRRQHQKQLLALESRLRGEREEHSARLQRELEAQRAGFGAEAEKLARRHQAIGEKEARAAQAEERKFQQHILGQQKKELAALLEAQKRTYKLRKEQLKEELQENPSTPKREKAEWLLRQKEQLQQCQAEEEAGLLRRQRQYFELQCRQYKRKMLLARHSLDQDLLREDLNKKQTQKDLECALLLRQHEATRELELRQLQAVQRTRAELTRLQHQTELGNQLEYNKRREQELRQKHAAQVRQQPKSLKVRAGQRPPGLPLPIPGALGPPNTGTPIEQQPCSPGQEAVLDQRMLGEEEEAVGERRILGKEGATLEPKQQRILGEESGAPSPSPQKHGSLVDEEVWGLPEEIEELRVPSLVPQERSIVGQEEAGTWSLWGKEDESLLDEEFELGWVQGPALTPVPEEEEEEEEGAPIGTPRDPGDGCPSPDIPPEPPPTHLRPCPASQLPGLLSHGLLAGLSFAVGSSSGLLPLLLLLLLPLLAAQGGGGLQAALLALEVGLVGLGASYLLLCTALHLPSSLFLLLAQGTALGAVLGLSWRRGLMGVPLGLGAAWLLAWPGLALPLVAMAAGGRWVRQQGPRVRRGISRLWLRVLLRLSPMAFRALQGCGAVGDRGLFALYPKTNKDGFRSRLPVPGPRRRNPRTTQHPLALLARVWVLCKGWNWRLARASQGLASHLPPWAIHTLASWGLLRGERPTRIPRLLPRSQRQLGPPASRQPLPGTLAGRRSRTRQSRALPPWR
Briefly: DiscoverX scanMAX binding assay. Conditions: 1 μM.
Source text: as §1, §2

For another assay, the target named is T6, TTBK2 kinase domain (Homo sapiens, UniProt Q6IQ55).
T6 construct: Either the TTBK1 or TTBK2 kinase domain at 2 µM
Briefly: Thermal shift assay. It is filed as binding. The conditions noted are these: kinase domain 2 µM, inhibitor 10 µM. On the procedure:
Either the TTBK1 or TTBK2 kinase domain at 2 µM in 10 mM HEPES pH 7.5 and 500 mM NaCl was mixed with the inhibitors at 10 µM in the presence of SyPRO orange dye (Invitrogen). A Real-Time PCR Mx3005p machine (Stratagene) was used to measure the fluorescence spectrum. The Tm shift assays and data evaluation for melting temperatures were performed according to the previously described protocol.

T4 sequence (O14578 whole entry): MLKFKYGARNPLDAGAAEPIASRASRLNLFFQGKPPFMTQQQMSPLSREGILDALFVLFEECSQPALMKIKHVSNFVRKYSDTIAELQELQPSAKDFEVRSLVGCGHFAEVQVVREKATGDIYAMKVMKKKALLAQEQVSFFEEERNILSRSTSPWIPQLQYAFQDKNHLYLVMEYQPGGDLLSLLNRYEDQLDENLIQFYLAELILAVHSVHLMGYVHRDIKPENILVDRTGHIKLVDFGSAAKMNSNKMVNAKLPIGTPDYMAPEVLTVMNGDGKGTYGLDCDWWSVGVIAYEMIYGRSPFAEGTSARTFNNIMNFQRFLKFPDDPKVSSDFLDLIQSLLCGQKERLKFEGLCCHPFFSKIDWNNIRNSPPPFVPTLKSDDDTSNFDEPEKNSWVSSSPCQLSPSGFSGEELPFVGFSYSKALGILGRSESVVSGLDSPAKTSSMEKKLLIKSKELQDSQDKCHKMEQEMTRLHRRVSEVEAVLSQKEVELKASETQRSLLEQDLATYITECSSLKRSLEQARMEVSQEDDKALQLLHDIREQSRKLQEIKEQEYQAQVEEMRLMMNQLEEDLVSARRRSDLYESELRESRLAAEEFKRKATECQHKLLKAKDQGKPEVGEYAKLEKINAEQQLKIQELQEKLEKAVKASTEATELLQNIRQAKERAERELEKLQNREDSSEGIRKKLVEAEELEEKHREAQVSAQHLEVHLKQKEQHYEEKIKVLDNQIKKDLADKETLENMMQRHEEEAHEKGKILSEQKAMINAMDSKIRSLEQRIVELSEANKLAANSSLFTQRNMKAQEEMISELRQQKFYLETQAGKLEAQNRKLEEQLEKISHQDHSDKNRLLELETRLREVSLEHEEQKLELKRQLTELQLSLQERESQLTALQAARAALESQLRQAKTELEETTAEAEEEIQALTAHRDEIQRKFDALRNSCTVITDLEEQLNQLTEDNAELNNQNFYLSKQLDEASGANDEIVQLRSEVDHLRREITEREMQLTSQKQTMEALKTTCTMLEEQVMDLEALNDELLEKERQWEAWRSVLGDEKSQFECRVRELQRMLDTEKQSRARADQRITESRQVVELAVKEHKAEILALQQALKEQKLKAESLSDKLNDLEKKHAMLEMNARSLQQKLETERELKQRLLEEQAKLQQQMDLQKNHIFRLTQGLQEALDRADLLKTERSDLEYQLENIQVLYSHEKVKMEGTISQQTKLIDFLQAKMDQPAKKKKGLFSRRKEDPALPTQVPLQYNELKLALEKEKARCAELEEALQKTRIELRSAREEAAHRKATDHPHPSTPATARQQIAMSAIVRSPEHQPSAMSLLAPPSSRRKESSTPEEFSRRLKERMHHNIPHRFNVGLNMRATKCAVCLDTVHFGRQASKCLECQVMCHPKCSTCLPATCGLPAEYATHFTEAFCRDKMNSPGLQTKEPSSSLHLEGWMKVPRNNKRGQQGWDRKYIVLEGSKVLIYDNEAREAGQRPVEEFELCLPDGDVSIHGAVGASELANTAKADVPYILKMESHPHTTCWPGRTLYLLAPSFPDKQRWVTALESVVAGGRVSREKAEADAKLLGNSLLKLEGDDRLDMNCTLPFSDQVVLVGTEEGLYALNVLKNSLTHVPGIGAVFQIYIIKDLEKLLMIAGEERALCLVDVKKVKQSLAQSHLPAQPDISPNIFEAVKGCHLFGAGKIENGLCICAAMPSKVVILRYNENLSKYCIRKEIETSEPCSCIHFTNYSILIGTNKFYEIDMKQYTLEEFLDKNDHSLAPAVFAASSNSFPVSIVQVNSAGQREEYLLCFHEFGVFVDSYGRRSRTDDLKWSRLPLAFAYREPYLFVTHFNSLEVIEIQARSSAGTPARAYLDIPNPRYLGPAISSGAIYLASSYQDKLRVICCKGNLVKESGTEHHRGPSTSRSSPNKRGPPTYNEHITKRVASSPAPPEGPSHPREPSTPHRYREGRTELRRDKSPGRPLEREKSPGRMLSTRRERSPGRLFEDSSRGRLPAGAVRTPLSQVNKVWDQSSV
T3 sequence (O60331 whole entry): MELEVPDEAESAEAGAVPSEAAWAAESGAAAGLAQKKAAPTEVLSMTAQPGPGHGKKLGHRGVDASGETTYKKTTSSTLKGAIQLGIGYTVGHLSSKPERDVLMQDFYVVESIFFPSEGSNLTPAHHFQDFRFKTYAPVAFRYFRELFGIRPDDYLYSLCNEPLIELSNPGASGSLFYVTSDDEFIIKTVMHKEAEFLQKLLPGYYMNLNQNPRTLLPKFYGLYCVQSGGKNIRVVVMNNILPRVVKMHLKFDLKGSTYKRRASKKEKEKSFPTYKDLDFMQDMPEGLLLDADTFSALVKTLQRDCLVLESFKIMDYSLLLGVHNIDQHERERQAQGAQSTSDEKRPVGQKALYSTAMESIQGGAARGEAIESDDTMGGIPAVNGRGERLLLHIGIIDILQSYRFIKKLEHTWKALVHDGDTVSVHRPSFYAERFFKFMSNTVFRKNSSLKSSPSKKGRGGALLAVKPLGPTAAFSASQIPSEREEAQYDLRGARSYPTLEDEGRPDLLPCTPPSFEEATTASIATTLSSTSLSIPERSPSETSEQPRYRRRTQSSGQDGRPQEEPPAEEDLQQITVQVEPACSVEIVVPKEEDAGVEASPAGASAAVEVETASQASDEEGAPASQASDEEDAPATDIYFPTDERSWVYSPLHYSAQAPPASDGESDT
T6 sequence (Q6IQ55 21-284 limits assumed): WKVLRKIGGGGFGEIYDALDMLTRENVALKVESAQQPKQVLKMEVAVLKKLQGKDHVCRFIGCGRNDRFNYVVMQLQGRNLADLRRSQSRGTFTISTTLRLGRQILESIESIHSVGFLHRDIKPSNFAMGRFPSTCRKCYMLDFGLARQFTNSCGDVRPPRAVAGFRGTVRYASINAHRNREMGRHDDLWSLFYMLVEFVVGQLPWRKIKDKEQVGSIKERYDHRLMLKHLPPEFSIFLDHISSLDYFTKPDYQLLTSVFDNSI
T1 sequence (P9WI81 whole entry): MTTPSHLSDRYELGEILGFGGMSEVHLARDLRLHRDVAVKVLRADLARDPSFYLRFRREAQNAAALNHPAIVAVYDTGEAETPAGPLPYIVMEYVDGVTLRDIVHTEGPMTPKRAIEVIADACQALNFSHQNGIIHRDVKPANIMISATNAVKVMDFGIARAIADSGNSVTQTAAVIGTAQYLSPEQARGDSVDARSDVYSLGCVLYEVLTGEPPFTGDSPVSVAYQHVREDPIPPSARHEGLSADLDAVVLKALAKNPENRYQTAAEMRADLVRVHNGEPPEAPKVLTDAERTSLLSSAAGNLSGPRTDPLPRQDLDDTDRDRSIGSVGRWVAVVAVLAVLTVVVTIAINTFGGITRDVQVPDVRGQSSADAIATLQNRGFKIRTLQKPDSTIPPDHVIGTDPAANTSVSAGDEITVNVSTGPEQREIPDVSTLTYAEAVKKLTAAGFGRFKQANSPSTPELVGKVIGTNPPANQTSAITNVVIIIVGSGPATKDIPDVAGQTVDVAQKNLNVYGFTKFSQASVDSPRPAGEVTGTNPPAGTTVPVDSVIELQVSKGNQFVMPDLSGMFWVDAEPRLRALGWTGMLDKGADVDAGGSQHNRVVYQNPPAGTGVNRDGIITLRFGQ

Consider `CC(C)(O)C#Cc1ccc2[nH]c3c(c2c1)-c1nc(N)ncc1CCC3` [AMG28, reference compound], for which the kinase binding, % of control at 1 µM on PKNB(M.tuberculosis) (read-out: PKNB(M.tuberculosis) % control at 1000nM) is 0.1%. Moreover, the percent of control (binding) at 1 µM on MAP4K2 (read-out: MAP4K2 % control at 1000nM) was 1.3%. Besides, the “PIP5K1C % control at 1000nM / DiscoverX PoC value” at PIP5K1C is 3.1 % control. In addition, the “CIT (CRIK) % control at 1000nM / DiscoverX PoC value” at CIT worked out at 1.3 % control. Moreover, the “TAOK2 % control at 1000nM / DiscoverX PoC value” at TAOK2 came to 3.5 % control. Further, the ΔTm at 10 µM on TTBK2 kinase domain stood at 6.2 °C.
For the compound `CC(C)(O)C#Cc1ccc2[nH]c3c(c2c1)-c1nc(N)ncc1CC3` [Compound 1], the “PKNB(M.tuberculosis) % control at 1000nM” value on PKNB(M.tuberculosis) was 1.7 % control. On MAP4K2, the “MAP4K2 % control at 1000nM” value is 2 % control. In addition, the “PIP5K1C % control at 1000nM / DiscoverX PoC value” at PIP5K1C is given as 0.5 % control. For the same compound, the “CIT (CRIK) % control at 1000nM / DiscoverX PoC value” at CIT is given as 0 % control. For the same compound, the “TAOK2 % control at 1000nM / DiscoverX PoC value” at TAOK2 is given as 1.5 % control. Besides, the “ΔTm TTBK2” value at TTBK2 kinase domain was found to be 5.6 °C.
As for `CC(C)(O)C#Cc1ccc2[nH]cc(-c3ccnc(N)n3)c2c1` [Compound 3], the “PKNB(M.tuberculosis) % control at 1000nM” value at PKNB(M.tuberculosis) was 0.9 % control. For the same compound, the “MAP4K2 % control at 1000nM” value on MAP4K2 worked out at 1.6 % control. Further, the “PIP5K1C % control at 1000nM / DiscoverX PoC value” on PIP5K1C is recorded as 0.4 % control. Besides, the “CIT (CRIK) % control at 1000nM / DiscoverX PoC value” at CIT amounted to 0 % control. Moreover, the “TAOK2 % control at 1000nM / DiscoverX PoC value” at TAOK2 is 1.3 % control. In addition, at TTBK2 kinase domain, the “ΔTm TTBK2” value was 6.2 °C.
